Target: T1, Menin (Homo sapiens, UniProt O00255)
T1 sequence (O00255 whole entry): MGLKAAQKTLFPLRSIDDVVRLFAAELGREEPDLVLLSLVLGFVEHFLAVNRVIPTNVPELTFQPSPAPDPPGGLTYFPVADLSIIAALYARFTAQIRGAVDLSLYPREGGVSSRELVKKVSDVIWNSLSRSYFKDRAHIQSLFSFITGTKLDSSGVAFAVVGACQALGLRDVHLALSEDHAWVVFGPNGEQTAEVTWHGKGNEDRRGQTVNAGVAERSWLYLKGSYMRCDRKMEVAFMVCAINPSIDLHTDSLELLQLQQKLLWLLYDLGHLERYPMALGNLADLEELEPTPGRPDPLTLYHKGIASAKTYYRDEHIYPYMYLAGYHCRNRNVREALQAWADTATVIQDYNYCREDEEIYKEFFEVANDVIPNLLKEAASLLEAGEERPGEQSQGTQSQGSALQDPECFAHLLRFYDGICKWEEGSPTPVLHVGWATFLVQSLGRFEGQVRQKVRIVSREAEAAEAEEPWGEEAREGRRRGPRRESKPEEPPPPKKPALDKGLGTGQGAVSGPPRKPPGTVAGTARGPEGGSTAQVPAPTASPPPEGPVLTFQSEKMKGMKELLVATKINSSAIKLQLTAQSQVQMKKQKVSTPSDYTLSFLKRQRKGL
Test: Primary Assay Used to Determine Potency of MEN1 Activity Inhibition
Description: Compound activity was determined using recombinant MEN1 protein (Creativebiomart, Cat #MEN1-35H) and a custom fluorescein-labeled MLL4-43 peptide (Eton Bioscience Inc.). Interaction between MEN1 and MLL4-43 in the presence of compounds was determined by fluorescence polarization assay using a Microplate Reader ClarioStar Plus. The reaction was carried out in assay buffer (50 mM TRIS-HCl pH 7.4-7.6, 50 mM NaCl, 1 mM DTT, 0.1 mg/ml BSA). The compounds were dispensed on a 384 well Diamond Well Plate (Axigen, Cat #P-384-120SQ-C-S) using the Biomek FX liquid handling system at 100× solutions of compounds in DMSO. 2×MEN1 mix (final concentration of MEN1 10 nM) was prepared in Assay buffer and 10 μl of mixture per well was added into 384 w white Reaction plate with NBS (Corning, Cat #4513). 10 μl of Assay buffer w/o MEN1 was used for negative control. Plates were centrifuged for 1 min at 100 g. Next step the Compounds were added to Reaction plate using Biomek station via following steps: 3 μl of 100× compounds (in DMSO) were mixed thoroughly with 27 μl Assay Buffer, then 2 μl of this mixture was added to Reaction plate with 10 μl of MEN1 mix. Plates were centrifuged for 1 min at 100 g and incubated for 20 min at room temperature. Next 8 μL of MLL4-43 peptide per well was added to final concentration of MLL 0.5 nM. Plates were incubated for 1 hour at room temperature. Then fluorescence polarization was measured using Microplate Reader.

EC50, < 75 nM:
Cc1c(CN2CCC3(CC2)CN(c2ncnc4ccc(CC(F)(F)F)cc24)C3)ccc2c1cc(C#N)n2CCN1CCNC1=O
Cc1c(CN2CCC3(CC2)CN(c2ncnc4ccc(CC(F)(F)F)cc24)C3)ccc2c1cc(C#N)n2CC12CC(NS(C)(=O)=O)(C1)C2
N#Cc1cc2cc(CN3CCC4(CC3)CN(c3ncnc5ccc(CC(F)(F)F)cc35)C4)ccc2[nH]1
Cc1c(CN2CCC3(CC2)CN(c2ncnc4ccc(OC(F)(F)F)cc24)C3)ccc2c1cc(C#N)n2C[C@@H]1CNC(=O)CO1 [US20250163061, Compound 1]
Cc1c(CN2CCC3(CC2)CN(c2ncnc4ccc(CC(F)(F)F)cc24)C3)ccc2c1cc(C#N)n2CC1CCNC(=O)CO1 (stereo not given) [US20250163061, Compound 2]
Cc1c(CN2CCC3(CC2)CN(c2ncnc4ccc(CC(F)(F)F)cc24)C3)ccc2c1cc(C#N)n2CC1CNC(=O)NC1 [US20250163061, Compound 4]
Cc1c(CN2CCC3(CC2)CN(c2ncnc4ccc(CC(F)(F)F)cc24)C3)ccc2c1cc(C#N)n2CC1CCNC(=O)CC1 (stereo not given) [US20250163061, Compound 5]
Cc1c(CN2CCC3(CC2)CN(c2ncnc4ccc(CC(F)(F)F)cc24)C3)ccc2c1cc(C#N)n2CC1CNC(=O)C(C)O1 (stereo not given) [US20250163061, Compound 7]
Cc1c(CN2CCC3(CC2)CN(c2ncnc4ccc(CC(F)(F)F)c(F)c24)C3)ccc2c1cc(C#N)n2CC1CNC(=O)CO1 (stereo not given) [US20250163061, Compound 12]
Cc1c(CN2CCC3(CC2)CN(c2ncnc4ccc(CC(F)(F)F)cc24)C3)ccc2c1cc(C#N)n2C(C)CCN1CCN(S(C)(=O)=O)CC1 (stereo not given) [US20250163061, Compound 13]
Cc1c(CN2CCC3(CC2)CN(c2ncnc4ccc(CC(F)(F)F)cc24)C3)ccc2c1cc(C#N)n2Cc1ccc(=O)[nH]c1 [US20250163061, Compound 14]
Cc1c(CN2CCC3(CC2)CN(c2ncnc4ccc(CC(F)(F)F)cc24)C3)ccc2c1cc(C#N)n2CC1CN(C)C(=O)CO1 (stereo not given) [US20250163061, Compound 15]
Cc1c(CN2CCC3(CC2)CN(c2ncnc4ccc(CC(F)(F)F)cc24)C3)ccc2c1cc(C#N)n2CC1CN(C)S(=O)(=O)CO1 (stereo not given) [US20250163061, Compound 16]
CCCCS(=O)(=O)N1CCN(C(C)Cn2c(C#N)cc3c(C)c(CN4CCC5(CC4)CN(c4ncnc6ccc(CC(F)(F)F)cc46)C5)ccc32)CC1 (stereo not given) [US20250163061, Compound 17]
COc1cc2c(cc1CN1CCC3(CC1)CN(c1ncnc4ccc(CC(F)(F)F)cc14)C3)cc(C#N)n2CC(C)N1CCN(S(C)(=O)=O)CC1 (stereo not given) [US20250163061, Compound 20]
Cc1c(CN2CCC3(CC2)CN(c2ncnc4ccc(CC(F)(F)F)cc24)C3)ccc2c1cc(C#N)n2CC1CNS(=O)(=O)CO1 (stereo not given) [US20250163061, Compound 21]
Cc1c(CN2CCC3(CC2)CN(c2ncnc4ccc(CC(F)(F)F)cc24)C3)ccc2c1cc(C#N)n2CC1CCNC(=O)C1 (stereo not given) [US20250163061, Compound 22]
Cc1c(CN2CCC3(CC2)CN(c2ncnc4ccc(CC(F)(F)F)cc24)C3)ccc2c1cc(C#N)n2[C@H](C)CN1CCN(S(C)(=O)=O)CC1 [US20250163061, Compound 23]
Cc1c(CN2CCC3(CC2)CN(c2ncnc4ccc(CC(F)(F)F)cc24)C3)ccc2c1cc(C#N)n2[C@@H](C)CN1CCN(S(C)(=O)=O)CC1 [US20250163061, Compound 24]
CCS(=O)(=O)N1CCN([C@H](C)Cn2c(C#N)cc3c(C)c(CN4CCC5(CC4)CN(c4ncnc6ccc(CC(F)(F)F)cc46)C5)ccc32)C[C@@H]1C [US20250163061, Compound 25]
CCS(=O)(=O)N1CCN([C@@H](C)Cn2c(C#N)cc3c(C)c(CN4CCC5(CC4)CN(c4ncnc6ccc(CC(F)(F)F)cc46)C5)ccc32)C[C@@H]1C [US20250163061, Compound 26]
Cc1c(CN2CCC3(CC2)CN(c2ncnc4ccc(CC(F)(F)F)cc24)C3)ccc2c1cc(C#N)n2C[C@@H](C)N1CCN(S(C)(=O)=O)[C@@H](C)C1 [US20250163061, Compound 27]
Cc1c(CN2CCC3(CC2)CN(c2ncnc4ccc(CC(F)(F)F)cc24)C3)ccc2c1cc(C#N)n2C[C@H](C)N1CCN(S(C)(=O)=O)[C@@H](C)C1 [US20250163061, Compound 28]
Cc1c(CN2CCC3(CC2)CN(c2ncnc4ccc(CC(F)(F)F)cc24)C3)ccc2c1cc(C#N)n2CC(C)N1CCCN(S(C)(=O)=O)CC1 (stereo not given) [US20250163061, Compound 29]
Cc1c(CN2CCC3(CC2)CN(c2ncnc4cc(F)c(CC(F)(F)F)cc24)C3)ccc2c1cc(C#N)n2CC(C)N1CCN(S(C)(=O)=O)CC1 (stereo not given) [US20250163061, Compound 30]
Cc1c(CN2CCC3(CC2)CN(c2ncnc4ccc(CC(F)(F)F)cc24)C3)ccc2c1cc(C#N)n2C[C@H]1CC[C@H](NS(C)(=O)=O)CC1 [US20250163061, Compound 40]
Cc1c(CN2CCC3(CC2)CN(c2ncnc4ncc(CC(F)(F)F)nc24)C3)ccc2c1cc(C#N)n2CC(C)N1CCN(S(C)(=O)=O)CC1 (stereo not given) [US20250163061, Compound 42]
Cc1c(CN2CCC3(CC2)CN(c2ncnc4ccc(CC(F)(F)F)cc24)C3)ccc2c1cc(C#N)n2CCCCN1CCN(S(C)(=O)=O)CC1 [US20250163061, Compound 44]
Cc1c(CN2CCC3(CC2)CN(c2ncnc4cnc(CC(F)(F)F)cc24)C3)ccc2c1cc(C#N)n2CC(C)N1CCN(S(C)(=O)=O)CC1 (stereo not given) [US20250163061, Compound 45]
Cc1c(CN2CCC3(CC2)CN(c2ncnc4ccc(CC(F)(F)F)cc24)C3)ccc2c1cc(C#N)n2CC1CNC(=O)C1 (stereo not given) [US20250163061, Compound 51]
Cc1c(CN2CCC3(CC2)CN(c2ncnc4ccc(CC(F)(F)F)cc24)C3)ccc2c1cc(C#N)n2CC1CCC(=O)N1 (stereo not given) [US20250163061, Compound 52]
Cc1c(CN2CCC3(CC2)CN(c2ncnc4ccc(CC(F)(F)F)c(F)c24)C3)ccc2c1cc(C#N)n2C[C@H](C)N1CCN(S(C)(=O)=O)CC1 [US20250163061, Compound 57]
CNc1nc(N2CC3(CCN(Cc4ccc5c(cc(C#N)n5C[C@@H]5CNC(=O)CO5)c4C)CC3)C2)c2cc(CC(F)(F)F)ccc2n1 [US20250163061, Compound 58]
CC(=O)NC12CC(Cn3c(C#N)cc4c(C)c(CN5CCC6(CC5)CN(c5ncnc7ccc(CC(F)(F)F)cc57)C6)ccc43)(C1)C2 [US20250163061, Compound 59]
CNC(=O)NC12CC(Cn3c(C#N)cc4c(C)c(CN5CCC6(CC5)CN(c5ncnc7ccc(CC(F)(F)F)cc57)C6)ccc43)(C1)C2 [US20250163061, Compound 60]
Cc1c(CN2CCC3(CC2)CN(c2ncnc4ccc(CC(F)(F)F)cc24)C3)ccc2c1cc(C#N)n2CC12CC(NS(N)(=O)=O)(C1)C2 [US20250163061, Compound 61]
Cc1c(CN2CCC3(CC2)CN(c2ncnc4ccc(CC(F)(F)F)cc24)C3)ccc2c1cc(C#N)n2CC12CC(N3CC(=O)NS3(=O)=O)(C1)C2 [US20250163061, Compound 62]
C=CC(=O)N1CCN(C(C)Cn2c(C#N)cc3c(C)c(CN4CCC5(CC4)CN(c4ncnc6ccc(CC(F)(F)F)cc46)C5)ccc32)CC1 (stereo not given) [US20250163061, Compound 63]
Cc1c(CN2CCC3(CC2)CN(c2ncnc4ccc(CC(F)(F)F)cc24)C3)ccc2c1cc(C#N)n2CC(C)N1CCN(S(=O)(=O)C(C)C)CC1 (stereo not given) [US20250163061, Compound 64]
C=CC(=O)N1CCN(CCCCn2c(C#N)cc3c(C)c(CN4CCC5(CC4)CN(c4ncnc6ccc(CC(F)(F)F)cc46)C5)ccc32)CC1 [US20250163061, Compound 65]
